{"source": "ChEMBL document CHEMBL1201862", "about": "“PubChem BioAssay data set” (2004)", "key": {"[1]": {"target": "Glyceraldehyde-3-phosphate dehydrogenase (Homo sapiens, UniProt P04406)", "sequence (P04406 whole entry)": "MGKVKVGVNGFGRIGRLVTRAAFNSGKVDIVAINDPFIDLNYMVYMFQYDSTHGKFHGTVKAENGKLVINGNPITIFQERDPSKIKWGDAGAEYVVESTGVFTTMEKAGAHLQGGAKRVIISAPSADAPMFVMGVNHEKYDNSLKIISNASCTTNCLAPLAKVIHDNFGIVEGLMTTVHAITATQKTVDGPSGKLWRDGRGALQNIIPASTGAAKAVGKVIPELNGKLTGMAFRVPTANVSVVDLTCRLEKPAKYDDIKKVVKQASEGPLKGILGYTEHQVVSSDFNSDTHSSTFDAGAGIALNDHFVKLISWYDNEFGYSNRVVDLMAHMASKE"}, "[2]": {"target": "T1, Bcl-2-related protein A1 (Mus musculus, UniProt Q07440)", "T1 sequence (Q07440 whole entry)": "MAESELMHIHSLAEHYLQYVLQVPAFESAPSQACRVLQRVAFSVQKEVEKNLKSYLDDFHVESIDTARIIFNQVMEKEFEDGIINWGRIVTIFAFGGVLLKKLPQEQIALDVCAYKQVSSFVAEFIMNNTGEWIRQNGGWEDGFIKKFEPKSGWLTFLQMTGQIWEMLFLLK", "experiment": "Bfl-1 inhibitors blocking BH3 peptide binding, confirmation, biochemical, TR-FRET, mouse Bfl-1 (AID 621);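 note: TR-FRET binding of GST-Bfl-1 to FITC-labelled Bid peptide via terbium antibody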"}, "[3]": {"target": "T1, Bcl-2-related protein A1", "experiment": "Bfl-1 binding inhibitors, SAR follow-up, biochemical, fluorescence polarization (AID 1070)"}, "[4]": {"experiment": "inhibitors of Vif binding to APOBEC3G peptide, primary screen, biochemical, TR-FRET, GST-Vif 1-94, biotin-A3G peptide, dose response retest (AID 1117319)", "assay_type": "functional"}, "[5]": {"experiment": "microbe, parasite or virus in culture", "assay_type": "functional", "details": "Mycobacterium tuberculosis"}, "[6]": {"experiment": "inhibitors of intracellular T. cruzi replication, confirmation, NIH3T3 host cells, beta-gal luminescence (AID 2044);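 note: luminescent beta-galactosidase reporter signal from transgenic T. cruzi replicating inside host cells; inhibitors lower the luminescence signal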", "assay_type": "functional, cell-based"}, "[7]": {"experiment": "cells"}, "[8]": {"target": "T2, Microphthalmia-associated transcription factor (Homo sapiens, UniProt O75030)", "T2 sequence (O75030 whole entry)": "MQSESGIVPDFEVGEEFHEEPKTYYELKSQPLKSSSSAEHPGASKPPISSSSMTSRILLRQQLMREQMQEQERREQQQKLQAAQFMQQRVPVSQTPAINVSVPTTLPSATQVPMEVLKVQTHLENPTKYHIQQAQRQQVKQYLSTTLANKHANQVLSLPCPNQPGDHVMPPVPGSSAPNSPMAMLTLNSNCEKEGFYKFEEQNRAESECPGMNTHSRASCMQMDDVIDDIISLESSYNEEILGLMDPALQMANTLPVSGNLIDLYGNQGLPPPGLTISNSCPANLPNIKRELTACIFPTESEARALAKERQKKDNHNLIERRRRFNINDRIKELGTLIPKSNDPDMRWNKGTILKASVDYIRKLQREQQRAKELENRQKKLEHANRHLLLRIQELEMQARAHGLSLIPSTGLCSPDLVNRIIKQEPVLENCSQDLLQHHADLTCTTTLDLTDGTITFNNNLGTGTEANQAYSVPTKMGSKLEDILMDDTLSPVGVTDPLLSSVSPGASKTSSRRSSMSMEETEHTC", "experiment": "TRPM1 promoter luciferase signal decrease, dose response, MITF inhibitor project, cell-based, SK-MEL-5, cherry-picked, set 3 (AID 493073)", "assay_type": "functional"}, "[9]": {"test_system": "INS1", "experiment": "beta cell apoptosis inhibitors, cytokine rescue, dose response, luminescence, retest (AID 449756);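 note: cell death triggered by IL-1 beta plus TNF-alpha plus IFN-gamma mixture; protective hits raise ATP signal compared with cytokine alone wells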", "assay_type": "functional, cell-based", "details": "Rattus norvegicus"}, "[10]": {"experiment": "cytotoxicity toward NIH3T3 fibroblasts, dose response, counter-screen, cell-based, ATP luminescence, mouse fibroblasts (AID 2010);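 note: cells exposed to compound for about 90 hours before reading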", "assay_type": "functional"}, "[11]": {"experiment": "NIH-3T3 fibroblast cytotoxicity, dose response, cytotoxicity control, cell-based, fluorescence, Alamar Blue, secondary assay (AID 2327);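 note: NIH-3T3 mouse fibroblasts cultured with fluconazole at 8 µg/mL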", "assay_type": "functional"}, "[12]": {"target": "Disintegrin and metalloproteinase domain-containing protein 17 (Homo sapiens, UniProt P78536)", "sequence (P78536 whole entry, the tested form may be a part)": "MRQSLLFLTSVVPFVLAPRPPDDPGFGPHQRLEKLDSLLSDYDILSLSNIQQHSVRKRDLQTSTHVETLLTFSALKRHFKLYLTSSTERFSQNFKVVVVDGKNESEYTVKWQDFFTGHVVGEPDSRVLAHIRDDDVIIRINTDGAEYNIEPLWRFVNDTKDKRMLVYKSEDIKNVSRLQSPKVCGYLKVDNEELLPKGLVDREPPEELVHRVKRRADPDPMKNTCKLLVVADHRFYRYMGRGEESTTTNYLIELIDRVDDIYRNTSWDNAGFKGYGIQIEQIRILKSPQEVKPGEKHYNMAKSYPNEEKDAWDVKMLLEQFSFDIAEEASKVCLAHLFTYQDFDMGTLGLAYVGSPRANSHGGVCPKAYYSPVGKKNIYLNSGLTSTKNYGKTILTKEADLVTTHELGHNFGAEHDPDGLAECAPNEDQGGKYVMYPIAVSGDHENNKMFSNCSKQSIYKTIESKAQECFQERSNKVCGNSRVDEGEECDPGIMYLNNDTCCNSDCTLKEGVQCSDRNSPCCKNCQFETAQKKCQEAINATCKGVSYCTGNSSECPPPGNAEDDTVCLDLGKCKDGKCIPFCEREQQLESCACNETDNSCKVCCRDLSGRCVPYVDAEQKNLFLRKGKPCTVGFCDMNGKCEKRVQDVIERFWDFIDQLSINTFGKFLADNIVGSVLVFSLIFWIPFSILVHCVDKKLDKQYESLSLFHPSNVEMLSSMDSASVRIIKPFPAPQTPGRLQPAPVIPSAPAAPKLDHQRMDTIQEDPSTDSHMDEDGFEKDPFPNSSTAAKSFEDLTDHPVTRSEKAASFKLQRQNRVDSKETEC", "experiment": "ADAM17 protease inhibitors, dose response, counter-screen for ADAM10 exosite inhibitor project, biochemical, quenched FRET substrate (AID 743253)"}, "[13]": {"experiment": "ADAM10 inhibitors, peptide cleavage, dose response, biochemical, QFRET (AID 743254);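 note: ADAM10 enzyme with the DM2 quenched FRET peptide as substrate; EDANS fluorescence gain as the protease cuts the substrate; inhibitor potency against ADAM10 proteolytic activity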"}, "[14]": {"target": "E3 ubiquitin-protein ligase Mdm2 (Homo sapiens, UniProt Q00987)", "sequence (Q00987 whole entry)": "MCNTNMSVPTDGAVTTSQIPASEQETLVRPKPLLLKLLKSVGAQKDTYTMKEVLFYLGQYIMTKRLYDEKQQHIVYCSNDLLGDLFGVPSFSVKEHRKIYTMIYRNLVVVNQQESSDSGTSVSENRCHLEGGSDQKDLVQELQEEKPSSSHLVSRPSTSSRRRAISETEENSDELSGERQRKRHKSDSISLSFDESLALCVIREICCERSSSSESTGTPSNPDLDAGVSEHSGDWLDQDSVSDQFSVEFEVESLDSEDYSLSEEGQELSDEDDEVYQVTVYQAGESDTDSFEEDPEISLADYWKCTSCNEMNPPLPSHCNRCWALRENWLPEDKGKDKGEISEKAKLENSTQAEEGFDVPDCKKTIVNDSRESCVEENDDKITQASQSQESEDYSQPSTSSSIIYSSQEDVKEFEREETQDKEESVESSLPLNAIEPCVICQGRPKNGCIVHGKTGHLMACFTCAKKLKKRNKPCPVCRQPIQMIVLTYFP", "experiment": "enhancers of MDM2-luciferase reporter signal, concentration-effect titration, project on inhibitors of MDM2 ubiquitin ligase, cellular assay, luminescent readout, 384-well plate format (AID 1394);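 note: MDM2 E3 inhibitors raise luminescence so EC50 is for signal enhancement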", "assay_type": "functional"}, "[15]": {"experiment": "cells", "remark": "listed apart in the source"}, "[16]": {"target": "T3, Protein skinhead-1 (Caenorhabditis elegans, UniProt P34707)", "T3 sequence (P34707 whole entry)": "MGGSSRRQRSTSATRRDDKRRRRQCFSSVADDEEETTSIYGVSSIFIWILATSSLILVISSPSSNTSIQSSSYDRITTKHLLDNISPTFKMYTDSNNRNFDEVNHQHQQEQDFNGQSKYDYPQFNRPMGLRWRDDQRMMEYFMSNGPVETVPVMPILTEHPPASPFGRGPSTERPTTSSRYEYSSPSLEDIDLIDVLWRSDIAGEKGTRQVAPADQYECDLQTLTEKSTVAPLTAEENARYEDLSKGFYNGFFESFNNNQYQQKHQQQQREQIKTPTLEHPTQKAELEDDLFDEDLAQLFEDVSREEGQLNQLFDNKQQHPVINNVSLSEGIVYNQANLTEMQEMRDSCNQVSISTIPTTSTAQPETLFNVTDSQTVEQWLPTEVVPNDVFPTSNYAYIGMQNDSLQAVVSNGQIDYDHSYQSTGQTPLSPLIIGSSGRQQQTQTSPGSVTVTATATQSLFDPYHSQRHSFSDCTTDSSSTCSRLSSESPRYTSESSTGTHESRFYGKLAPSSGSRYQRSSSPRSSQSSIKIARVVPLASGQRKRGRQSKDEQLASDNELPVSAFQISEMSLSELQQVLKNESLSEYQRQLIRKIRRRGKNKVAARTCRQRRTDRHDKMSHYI", "assay_type": "functional"}, "[17]": {"experiment": "Luminescence-based cell-based high throughput dose response assay to identify activators of the DAF-12 from the parasite S. stercoralis (ssDAF-12).", "assay_type": "functional"}, "[18]": {"target": "T4, Oxysterols receptor LXR-beta (Homo sapiens, UniProt P55055)", "T4 sequence (P55055 whole entry)": "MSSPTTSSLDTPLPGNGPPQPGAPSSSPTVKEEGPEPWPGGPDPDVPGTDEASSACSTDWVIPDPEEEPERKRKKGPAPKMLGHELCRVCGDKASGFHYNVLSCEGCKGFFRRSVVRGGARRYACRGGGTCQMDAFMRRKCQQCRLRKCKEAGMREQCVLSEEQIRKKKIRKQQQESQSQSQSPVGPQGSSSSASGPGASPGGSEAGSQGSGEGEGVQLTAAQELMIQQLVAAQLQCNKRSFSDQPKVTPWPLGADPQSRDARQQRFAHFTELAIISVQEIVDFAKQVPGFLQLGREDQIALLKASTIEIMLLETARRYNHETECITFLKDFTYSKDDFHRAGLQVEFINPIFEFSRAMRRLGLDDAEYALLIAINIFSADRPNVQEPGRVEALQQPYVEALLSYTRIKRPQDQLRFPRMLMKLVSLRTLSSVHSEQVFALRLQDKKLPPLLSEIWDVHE", "experiment": "LXR agonists, Gal4 luciferase reporter, dose response, counter-screen for ssDAF-12 agonist project, cell-based, luminescence, HEK293, S. stercoralis campaign (AID 720737)", "assay_type": "functional", "details": "read-out: IC50 (the source's name)"}, "[19]": {"experiment": "HEp-2 cell cytotoxicity, dose response, cytotoxicity control for RSV inhibitor project, HTS (AID 2410)", "assay_type": "functional", "details": "human respiratory syncytial virus"}, "[20]": {"target": "T4, Oxysterols receptor LXR-beta", "assay_type": "functional, cell-based"}, "[21]": {"experiment": "cytotoxicity in KRAS-transformed pancreatic duct cells, primary screen, cell-based, fluorescence, HTS (AID 431);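 note: cell line used: HPDE-C7K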", "assay_type": "functional", "details": "Homo sapiens"}, "[22]": {"experiment": "cytotoxicity in HPDE-C7 cells, cell-based, fluorescence, HTS (AID 430)", "assay_type": "functional", "details": "Homo sapiens"}, "[23]": {"target": "Prothrombin (Homo sapiens, UniProt P00734)", "experiment": "Thrombin 1536 HTS Dose Response Confirmation. [Related pubchem assays: 1046 (Thrombin 1536 HTS; hits were confirmed in this assay)]", "assay_type": "functional"}}, "note": "Active and inactive are the calls of the source."}
{"smiles": "CCCCN1CCN(C2=C(Cl)C(=O)N(c3ccc(Cl)c(Cl)c3)C2=O)CC1", "values": [{"measurement": "IC50", "setting": "[1]", "result": "> 100 µM (not active)"}, {"measurement": "IC50", "setting": "[2]", "result": "3.28 µM (active)"}, {"measurement": "IC50", "setting": "[3]", "result": "10.5 µM (active)"}]}
{"smiles": "O=C(O)c1ccc(S(=O)(=O)c2ccc3c(c2)C(=O)N(Cc2ccco2)C3=O)cc1", "values": [{"measurement": "IC50", "setting": "[4]", "result": "> 100 µM (active)"}]}
{"smiles": "CCOc1ccc(-[n+]2c(-c3ccc(Br)cc3)cn3c2CCCCC3)cc1", "values": [{"measurement": "CC50", "setting": "[5]", "result": "21.2 µM (active)"}, {"measurement": "EC50", "setting": "[6]", "result": "< 0.1 µM (active)"}, {"measurement": "EC50", "setting": "[7]", "result": "0.073 µM (active)"}, {"measurement": "AC50", "setting": "[8]", "result": "3.87 µM (active)"}, {"measurement": "AC50", "setting": "[9]", "result": "1.07 µM (active)"}, {"measurement": "EC50", "setting": "[10]", "result": "> 60 µM (not active)"}, {"measurement": "EC50", "setting": "[11]", "result": "> 160 µM (inactive)"}]}
{"smiles": "Cc1ccc(Cl)c(N2C(=O)C(Cl)=C(N3CCOCC3)C2=O)c1Cl", "values": [{"measurement": "IC50", "setting": "[1]", "result": "> 10 µM (inconclusive)"}, {"measurement": "IC50", "setting": "[2]", "result": "> 100 µM (not active)"}, {"measurement": "IC50", "setting": "[3]", "result": "> 100 µM (not active)"}]}
{"smiles": "CN(C)c1ccc(C(CNS(=O)(=O)c2ccc(F)cc2)c2c[nH]c3ccccc23)cc1", "note": "(configuration not stated)", "values": [{"measurement": "IC50", "setting": "[12]", "result": "> 69.5 µM (inactive)"}, {"measurement": "IC50", "setting": "[13]", "result": "> 69.5 µM (inactive)"}]}
{"smiles": "COC(=O)C1=C(C(=O)OC)[C@@H]2N(C)c3ccc(OC)cc3[C@@]23C[C@@H](C(=O)OC)NC3=N1", "values": [{"measurement": "EC50", "setting": "[14]", "result": "1.09 µM (not active)"}]}
{"smiles": "Cc1cccc(Nc2nc(-c3cccs3)cs2)n1", "values": [{"measurement": "EC50", "setting": "[15]", "result": "> 67.5 µM (inactive)"}, {"measurement": "IC50", "setting": "[16]", "result": "> 100 µM (inactive)"}, {"measurement": "IC50", "setting": "[17]", "result": "> 67.5 µM (inactive)"}, {"measurement": "EC50", "setting": "[18]", "result": "> 67.5 µM (inactive)"}, {"measurement": "CC50", "setting": "[19]", "result": "9.85 µM (active)"}, {"measurement": "EC50", "setting": "[20]", "result": "> 67.5 µM (inactive)"}]}
{"smiles": "Cc1ccc(C(=O)Nc2cccc(C(=O)NCc3ccccc3)c2)o1", "values": [{"measurement": "EC50", "setting": "[21]", "result": "12.4 µM (active)"}, {"measurement": "EC50", "setting": "[22]", "result": "16.6 µM (active)"}]}
{"smiles": "CCc1nc(O)c2ccsc2n1", "values": [{"measurement": "IC50", "setting": "[23]", "result": "> 50 µM (not active)"}]}
{"smiles": "COCCNc1nnc(SCC(=O)c2c[nH]c3ccccc23)s1", "values": [{"measurement": "IC50", "setting": "[23]", "result": "> 50 µM (not active)"}]}
